Data as given in the supplement of paper PMC10307832.

Assays:
Experiment in all cases: relative viability (nuclei count vs DMSO), 5 days (fraction); higher = more cells survive
YM155 + Vorinostat = compound: COCC[n+]1c2c(n(Cc3cnccn3)c1C)C(=O)c1ccccc1C2=O [YM155] + O=C(CCCCCCC(=O)Nc1ccccc1)NO [Vorinostat] (partner 1 µM)
How it was run: (§1)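 Relative viability equals treated-well nuclei counts divided by vehicle-well nuclei counts. Counts came from 4× images of lung cancer cell lines grown in 1536-well plates for 5 days after pin-tool dosing on the day after seeding. Dosing used one drug alone or a fixed anchor-drug dose plus five library-drug doses (not always all listed) in √10 steps, and values are medians of duplicate plates.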

Quizartinib + Phenformin = compound: CC(C)(C)c1cc(NC(=O)Nc2ccc(-c3cn4c(n3)sc3cc(OCCN5CCOCC5)ccc34)cc2)no1 [Quizartinib] + N=C(N)NC(=N)NCCc1ccccc1 [Phenformin] (partner 250 µM)
How it was run: as §1

Quizartinib + Vorinostat = compound: CC(C)(C)c1cc(NC(=O)Nc2ccc(-c3cn4c(n3)sc3cc(OCCN5CCOCC5)ccc34)cc2)no1 [Quizartinib] + O=C(CCCCCCC(=O)Nc1ccccc1)NO [Vorinostat] (partner 1 µM)
How it was run: as §1

YM155 + Lapatinib = compound: COCC[n+]1c2c(n(Cc3cnccn3)c1C)C(=O)c1ccccc1C2=O [YM155] + CS(=O)(=O)CCNCc1ccc(-c2ccc3ncnc(Nc4ccc(OCc5cccc(F)c5)c(Cl)c4)c3c2)o1 [Lapatinib] (partner 2 µM)
How it was run: as §1

Cell Line | relative viability (YM155 + Vorinostat; first compound 0.002 µM) | relative viability (YM155 + Vorinostat; first compound 0.006325 µM) | relative viability (YM155 + Vorinostat; first compound 0.02 µM) | relative viability (YM155 + Vorinostat; first compound 0.06325 µM) | relative viability (Quizartinib + Phenformin; first compound 0.001 µM) | relative viability (Quizartinib + Phenformin; first compound 0.003162 µM) | relative viability (Quizartinib + Phenformin; first compound 0.01 µM) | relative viability (Quizartinib + Phenformin; first compound 0.03162 µM) | relative viability (Quizartinib + Phenformin; first compound 0.1 µM) | relative viability (Quizartinib + Vorinostat; first compound 0.001 µM) | relative viability (Quizartinib + Vorinostat; first compound 0.003162 µM) | relative viability (Quizartinib + Vorinostat; first compound 0.01 µM) | relative viability (Quizartinib + Vorinostat; first compound 0.03162 µM) | relative viability (Quizartinib + Vorinostat; first compound 0.1 µM) | relative viability (YM155 + Lapatinib; first compound 0.002 µM) | relative viability (YM155 + Lapatinib; first compound 0.006325 µM) | relative viability (YM155 + Lapatinib; first compound 0.02 µM) | relative viability (YM155 + Lapatinib; first compound 0.06325 µM)
PC-3 [JPC-3] | 0.746 | 0.889 | 0.855 | 0.74 | 0.453 | 0.466 | 0.469 | 0.481 | 0.506 | 0.758 | 0.889 | 0.55 | 0.596 | 0.912 | 0.455 | 0.455 | 0.437 | 0.455
PC-14 | 0.669 | 0.694 | 0.779 | 0.252 | 0.493 | 0.698 | 0.571 | 0.394 | 0.978 | 0.707 | 0.693 | 0.858 | – | 0.858 | 0.306 | 0.295 | 0.297 | 0.355
RERF-LC-KJ | 0.694 | 0.794 | 0.654 | 0.759 | 0.394 | 0.397 | 0.424 | 0.359 | 0.315 | 0.58 | 0.707 | 0.751 | 0.53 | 0.691 | 0.755 | 0.853 | 0.88 | 0.821
SK-LU-1 | 0.732 | 0.762 | 0.845 | 0.642 | 0.482 | 0.504 | 0.625 | 0.451 | 0.549 | 0.766 | 0.716 | 0.896 | 0.835 | 0.892 | 0.835 | 0.85 | 0.971 | 0.653
SK-MES-1 | 1 | 1.17 | 1.11 | 0.415 | 0.593 | 0.636 | 0.677 | – | 0.612 | 1.01 | 1 | 1.2 | 0.586 | 1.03 | 0.468 | 0.476 | 0.442 | 0.473
SW 1573 | 0.698 | 0.731 | 0.603 | 0.0728 | 0.355 | 0.369 | 0.397 | – | 0.367 | 0.556 | 0.715 | 0.684 | – | 1.27 | 1.1 | 1.01 | 1.21 | 0.858
UMC-11 | 0.392 | 0.35 | 0.377 | 0.343 | – | 0.255 | 0.307 | 0.268 | 0.212 | 0.376 | 0.333 | 0.336 | 0.338 | 0.358 | 0.846 | 0.964 | 0.994 | 0.93
